Reference: patent publication US8911771B2, “Fluid application device and method” (Otsuka America Pharmaceutical, Inc., priority 2004, dated 2014)

Test system: wide range of bacteria (1050 organisms; clinical isolates from a number of bacterial and fungal species)
Assay: in vitro minimum inhibitory concentration (MIC) testing
Type: cell-based
Conditions: concentration of olanexidine solution inhibiting >95% of 1050 organisms
From the text: The bacteria included in the MIC testing study included clinical isolates from a number of bacterial and fungal species. The MIC method is a widely accepted methodology that is useful for determining and comparing in vitro antimicrobial activity, while the Pig Skin Model is useful for determining activity under simulated conditions of use. The following chart summarizes the results obtained with the Pig Skin Model: […]

MIC: ≤ 32 µg/mL
SMILES: CCCCCCCCNC(=N)NC(=N)NCc1ccc(Cl)c(Cl)c1 [olanexidine, 1-(3,4-dichlorobenzyl)-5-octylbiguanide]
